We go through two compounds from patent US11447466B2, “Substituted indole compounds useful as inhibitors of TLR7/8/9” (BRISTOL-MYERS SQUIBB COMPANY, priority 2017, dated 2022).

In general, IC50 refers to the concentration needed to halve the response being measured.

Common to all, as to format: cell-based
In one assay the target is T1, human TLR8 (Homo sapiens, UniProt Q9NR97).
T1 construct: host or cells: HEK-Blue cells
T1 sequence (Q9NR97 27-1041): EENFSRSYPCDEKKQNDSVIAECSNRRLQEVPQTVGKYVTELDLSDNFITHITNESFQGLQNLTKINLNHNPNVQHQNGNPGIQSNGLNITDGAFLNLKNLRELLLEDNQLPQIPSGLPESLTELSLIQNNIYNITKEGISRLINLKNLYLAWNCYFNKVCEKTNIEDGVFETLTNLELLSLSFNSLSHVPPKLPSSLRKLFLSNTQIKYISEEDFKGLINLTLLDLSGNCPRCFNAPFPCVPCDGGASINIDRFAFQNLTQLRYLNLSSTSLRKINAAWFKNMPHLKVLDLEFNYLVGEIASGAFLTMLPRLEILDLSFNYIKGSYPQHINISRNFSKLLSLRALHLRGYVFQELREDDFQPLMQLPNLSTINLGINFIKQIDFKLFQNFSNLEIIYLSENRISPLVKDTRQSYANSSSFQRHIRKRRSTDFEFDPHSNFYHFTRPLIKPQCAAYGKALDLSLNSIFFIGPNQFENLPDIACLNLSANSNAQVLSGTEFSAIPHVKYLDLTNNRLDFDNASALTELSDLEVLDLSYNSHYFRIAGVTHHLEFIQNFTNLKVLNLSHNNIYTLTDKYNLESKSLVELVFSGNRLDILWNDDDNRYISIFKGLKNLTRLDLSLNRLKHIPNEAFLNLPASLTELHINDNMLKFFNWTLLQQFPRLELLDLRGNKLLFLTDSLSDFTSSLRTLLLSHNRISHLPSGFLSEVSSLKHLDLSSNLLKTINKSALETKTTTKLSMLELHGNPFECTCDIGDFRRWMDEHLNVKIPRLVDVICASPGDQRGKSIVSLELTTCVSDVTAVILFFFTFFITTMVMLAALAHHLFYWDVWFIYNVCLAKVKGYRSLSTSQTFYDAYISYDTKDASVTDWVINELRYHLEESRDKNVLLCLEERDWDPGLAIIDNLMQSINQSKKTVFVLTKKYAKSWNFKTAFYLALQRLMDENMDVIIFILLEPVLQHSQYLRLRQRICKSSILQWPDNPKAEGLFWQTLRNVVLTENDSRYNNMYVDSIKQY
The assay can be described thus: TLR8 inhibition reporter assay (HEK-Blue SEAP reporter, R848 stimulation). The note with it: HEK-Blue cells overexpressing human TLR8, SEAP reporter, R848 15.9 μM, 22 hour incubation. Put shortly: (§1)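 Screening used HEK-Blue cells overexpressing one human TLR (7, 8 or 9) and an IFN-β minimal promoter–NF-κB/AP-1 SEAP construct. Stimulation lasted 22 h at 37 °C with receptor-specific agonist: gardiquimod, R848 or ODN2006 at 7.5 μM, 15.9 μM and 5 nM.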
(In general: In a reporter assay the amount or activity of a reporter protein is the signal.)

The next assay has as its target T2, human TLR9 (Homo sapiens, UniProt Q9NR96).
T2 construct: host or cells: HEK-Blue cells
T2 sequence (Q9NR96 26-1032): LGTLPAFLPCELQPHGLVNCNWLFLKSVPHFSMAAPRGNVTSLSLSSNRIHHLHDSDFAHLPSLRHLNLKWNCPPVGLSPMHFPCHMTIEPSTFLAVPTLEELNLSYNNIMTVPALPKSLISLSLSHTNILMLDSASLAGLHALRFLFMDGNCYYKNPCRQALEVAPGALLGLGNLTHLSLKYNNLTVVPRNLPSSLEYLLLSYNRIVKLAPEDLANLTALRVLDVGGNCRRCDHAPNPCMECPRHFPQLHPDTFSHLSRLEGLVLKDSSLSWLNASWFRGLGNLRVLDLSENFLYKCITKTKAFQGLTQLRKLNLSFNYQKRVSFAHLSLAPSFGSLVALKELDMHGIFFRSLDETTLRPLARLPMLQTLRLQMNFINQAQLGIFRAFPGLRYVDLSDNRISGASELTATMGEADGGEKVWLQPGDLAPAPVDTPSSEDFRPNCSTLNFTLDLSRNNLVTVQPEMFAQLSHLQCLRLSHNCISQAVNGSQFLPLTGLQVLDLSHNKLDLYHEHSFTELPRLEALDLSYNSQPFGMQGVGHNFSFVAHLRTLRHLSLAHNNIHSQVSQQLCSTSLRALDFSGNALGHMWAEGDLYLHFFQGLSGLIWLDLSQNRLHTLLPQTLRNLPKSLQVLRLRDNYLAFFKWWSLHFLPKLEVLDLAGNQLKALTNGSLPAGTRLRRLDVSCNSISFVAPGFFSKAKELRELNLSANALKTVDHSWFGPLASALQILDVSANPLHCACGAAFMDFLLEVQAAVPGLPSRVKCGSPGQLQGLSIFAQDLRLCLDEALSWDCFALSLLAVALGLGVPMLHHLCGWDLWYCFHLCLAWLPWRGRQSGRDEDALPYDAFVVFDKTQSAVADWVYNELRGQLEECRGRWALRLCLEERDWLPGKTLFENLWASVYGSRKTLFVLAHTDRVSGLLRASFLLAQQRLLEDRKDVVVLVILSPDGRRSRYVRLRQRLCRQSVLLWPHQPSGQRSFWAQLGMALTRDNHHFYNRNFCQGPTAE
The assay can be described thus: TLR9 inhibition reporter assay (HEK-Blue SEAP reporter, ODN2006 stimulation). The note with it: HEK-Blue cells overexpressing human TLR9, SEAP reporter, ODN2006 5 nM, 22 hour incubation. Put shortly:
as §1

The target in the next assay is T3, human TLR7 (Homo sapiens, UniProt Q9NYK1).
T3 construct: host or cells: HEK-Blue cells
T3 sequence (Q9NYK1 27-1049): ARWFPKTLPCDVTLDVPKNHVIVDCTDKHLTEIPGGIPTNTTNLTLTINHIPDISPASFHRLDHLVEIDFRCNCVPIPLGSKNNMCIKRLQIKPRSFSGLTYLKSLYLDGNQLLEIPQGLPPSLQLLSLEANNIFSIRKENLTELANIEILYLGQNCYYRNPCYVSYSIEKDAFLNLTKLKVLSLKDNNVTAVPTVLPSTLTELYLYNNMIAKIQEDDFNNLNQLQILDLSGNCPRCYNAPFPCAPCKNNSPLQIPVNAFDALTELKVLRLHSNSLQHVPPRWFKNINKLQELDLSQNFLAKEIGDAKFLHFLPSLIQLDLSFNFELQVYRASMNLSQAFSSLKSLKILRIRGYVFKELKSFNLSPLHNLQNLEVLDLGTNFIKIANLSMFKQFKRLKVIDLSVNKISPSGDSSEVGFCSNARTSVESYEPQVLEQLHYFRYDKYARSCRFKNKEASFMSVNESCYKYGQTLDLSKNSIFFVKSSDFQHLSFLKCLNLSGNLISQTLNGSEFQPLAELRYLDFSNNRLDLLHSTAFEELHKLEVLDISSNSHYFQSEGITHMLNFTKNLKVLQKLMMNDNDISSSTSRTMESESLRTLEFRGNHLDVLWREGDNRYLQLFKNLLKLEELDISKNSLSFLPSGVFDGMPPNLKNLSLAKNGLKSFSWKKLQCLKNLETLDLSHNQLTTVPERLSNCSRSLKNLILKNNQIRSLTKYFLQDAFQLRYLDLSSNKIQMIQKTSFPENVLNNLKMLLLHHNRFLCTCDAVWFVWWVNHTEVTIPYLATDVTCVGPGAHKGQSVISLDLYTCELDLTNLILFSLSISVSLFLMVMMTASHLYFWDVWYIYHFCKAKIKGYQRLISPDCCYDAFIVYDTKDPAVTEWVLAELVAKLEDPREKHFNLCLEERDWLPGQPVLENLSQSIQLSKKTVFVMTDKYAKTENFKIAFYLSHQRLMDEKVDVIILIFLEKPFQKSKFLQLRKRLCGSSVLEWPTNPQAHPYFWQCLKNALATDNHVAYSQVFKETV
The assay can be described thus: TLR7 inhibition reporter assay (HEK-Blue SEAP reporter, gardiquimod stimulation). The note with it: HEK-Blue cells overexpressing human TLR7, SEAP reporter, gardiquimod 7.5 μM, 22 hour incubation. A digest of the protocol: as §1

For the compound `Cc1cc(-c2[nH]c3ccc(C4CCN(CC(=O)N(C)C)CC4)cc3c2C(C)C)cn(CC(C)C)c1=O` [Example 163, 2-(4-(2-(1-isobutyl-5-methyl-6-oxo-1,6-dihydropyridin-3-yl)-3-isopropyl-1H-indol-5-yl)piperidin-1-yl)-N,N-dimethylacetamide], the 50% inhibitory concentration (IC50) at human TLR8 came to 118 nM; against human TLR9, 3890 nM; against human TLR7 it was 12.3 nM.
Regarding `Cc1nc(-c2[nH]c3ccc(C4CCN(C5CCOC5)CC4)cc3c2C(C)C)cn(C)c1=O` (stereo not drawn) [Example 190, 5-(3-isopropyl-5-(1-(tetrahydrofuran-3-yl)piperidin-4-yl)-1H-indol-2-yl)-1,3-dimethylpyrazin-2(1H)-one], the figures for the IC50 against human TLR8, at human TLR9 and on human TLR7 were 53.8 nM, 2260 nM and 25.6 nM, respectively.
